Measured values from patent US11433053B2, “LSD1 inhibitor and preparation method and application thereof” (CSPC ZHONGQI PHARMACEUTICAL TECHNOLOGY (SHIJIAZHUANG) CO., …, priority 2017, dated 2022).

How the values were obtained:
[1] = Pharmacokinetic evaluation in C57BL/6 mice after intravenous and oral administration; type: in vivo; conditions: male, mouse, plasma; for Cmax / clearance / half-life / Vd: IV 1 mg/kg; for Cmax: oral 2 mg/kg, route of Cmax not stated, read-out: max concentration Cmax; for clearance: read-out: clearance CL; for half-life: read-out: half-life T1/2 (IV, h) (converted); for Vd: read-out: volumes of distribution Vdss; for bioavailability: PO 2 mg/kg vs IV 1 mg/kg, read-out: bioavailability F (%); for AUC(0-t): PO 2 mg/kg, read-out: the area under the plasma concentration-time curve AUC0-last PO
Description: Experimental purposes: To test the pharmacokinetics of compounds in C57BL/6 mice
C57BL/6 mice (male, 7-9 weeks old, Shanghai Slack)
Test the pharmacokinetics characteristics of rodents after intravenous and oral administration in accordance with standard protocols, and the candidate compound was formulated into a clear solution in the experiment. The mice were administered by intravenous injection and orally once. The intravenous and oral vehicle is a 10% aqueous solution of hydroxypropyl β-cyclodextrin or a physiological saline solution. Six male C57BL/6 mice were employed in this assay, three of them were administered intravenously at a dose of 1 mg/kg, plasma samples were collected at 0 h (before administration) and 0.0833, 0.25, 0.5, 1, 2, 4, 7, 24 h after administration. Another three mice were administered by oral gavage at a dose of 2 mg/kg, plasma samples were collected at 0 h (before administration) and 0.5, 1, 2, 3, 4, 6, 24 h after administration. Collect whole blood samples within 24 hours, centrifuge at 3000 g for 15 minutes, separate the supernatant to obtain a plasma sample, 4 times volume of the internal standard acetonitrile solution was added to precipitate the protein. Centrifuge the supernatant and add an equal volume of water and centrifuge to take the supernatant. LC-MS/MS was used to quantitatively analyze plasma concentrations and calculate pharmacokinetic parameters such as max concentration (Cmax), clearance (CL), half-life (T1/2), volumes of distribution (Vdss), the area under the plasma concentration-time curve (AUC0-last), bioavailability (F), etc.

human LSD1 = human LSD1 (Homo sapiens (Human), UniProt O60341); test: Evaluation of enzyme activity: LSD1 fluorescence coupling enzyme assay (HRP/Amplex Red); type: biochemical; conditions: human LSD1, histone H3(1-21)K4me2 peptide 10 μM, 30 min pre-incubation
Outline: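 Human LSD1 preincubated 30 min with compound, then reacted with H3(1-21)K4me2 peptide (10 μM). FAD-dependent H2O2 detected via HRP/Amplex Red fluorescence (Ex/Em 535/590). Ten-dose, 3-fold dilutions in duplicate from 10 μM gave IC50s, binned into activity classes.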

H1417 cells = test: Cell proliferation inhibitory activity on H1417 cells (CellTiter-Glo, 10 days); type: cell-based, human; conditions: Homo sapiens; for IC50: NCI-H1417, 240 h, H1417 cells, 10 days incubation; for Emax: NCI-H1417, H1417 cells, highest percentage inhibition of cell viability, read-out: Maximum inhibition percentage (%)
Description: Experimental purposes: To test the proliferation inhibitory activities of the test compounds on H1417 cells.
Experimental materials: RPMI 1640 medium, fetal bovine serum, Promega CellTiter-Glo reagent. The H1417 cell line purchased from ATCC. Envision Multi-Label Analyzer (PerkinElmer).
Experimental method: H1417 cells were seeded in a black 384-well plate, 1000 cells per well in […] of cell suspension. The test compounds were diluted 3-fold with Epmotion to the 10th concentration i.e, the compounds were diluted from 10 mmol to […], and a double duplicate well experiment was set. 198 μL medium was added to the middle plate, according to the corresponding position, 2 μL gradient diluted compounds were added to the middle plate. The mixture was mixed evenly and transferred 20 μL per well to the cell plates. The cell plates were incubated in a carbon dioxide incubator for 10 days. 25 μL of Promega CellTiter-Glo reagent per well was added to the cell plate and the mixture was incubated for 10 minutes at room temperature to stabilize the luminescence signal. Readings were performed by PerkinElmer Envision multi-label analyzer.
Data analysis: The original data was converted to the inhibition rate by the equation (Max-Ratio)/(Max-Min)*100%, and the value of IC50 can be obtained by curve fitting with four parameters. (Model 205 in XLFIT5, iDBS)
The growth inhibitory activities of the test compounds on H1417 cells were classified as + for IC50≤100 nM; ++ for IC50>100 nM and ≤500 nM; +++ for IC50>500 nM and ≤1000 nM; the highest percentage inhibition of cell viability was classified as: […]; 90%>B≥70%; 70%>C≥50%.

## N#Cc1ccc(-c2nc(C3(CN[C@H]4CC4c4ccccc4)CC3)no2)cc1 (stereo partly shown) [Example 64]
[1]
  Cmax: 1290 ng/mL
  clearance: 21.9 mL/min/kg
  half-life: 1.3 h
  Vd: 1.9 L/kg
  bioavailability: 44%
  AUC(0-t): 1.88 µM·h
Human LSD1
  IC50: ≤ 50 nM
H1417 cells
  IC50: 100 to 500 nM
  Emax: 90 to 100%

## Clc1ccc(-c2nc(C3(CN[C@H]4CC4c4ccccc4)CC3)no2)cc1 (stereo partly shown) [Example 65]
[1]
  Cmax: 2070 ng/mL
  clearance: 10.6 mL/min/kg
  half-life: 4.2 h
  Vd: 3 L/kg
  bioavailability: 49%
  AUC(0-t): 3.38 µM·h
Human LSD1
  IC50: ≤ 50 nM
H1417 cells
  IC50: 100 to 500 nM
  Emax: 90 to 100%

## FC(F)(F)c1ccc(-c2nc(C3(CN[C@H]4CC4c4ccccc4)CC3)no2)cn1 (stereo partly shown) [Example 66]
[1]
  Cmax: 2140 ng/mL
  clearance: 13.1 mL/min/kg
  half-life: 1.5 h
  Vd: 1.4 L/kg
  bioavailability: 57%
  AUC(0-t): 3.51 µM·h
Human LSD1
  IC50: ≤ 50 nM
H1417 cells
  IC50: 500 to 1000 nM
  Emax: 90 to 100%

## O=C(O)c1ccc(CN2CCC(c3nc(C4(CN[C@@H]5CC5c5ccccc5)CC4)no3)CC2)cc1 (stereo partly shown) [Example 169]
[1]
  Cmax: 763 ng/mL
  clearance: 43.4 mL/min/kg
  half-life: 1 h
  Vd: 0.5 L/kg
  bioavailability: 20.6%
  AUC(0-t): 0.329 µM·h
H1417 cells
  IC50: 500 to 1000 nM
  Emax: 50 to 70%

## O=C(O)C12CCC(c3nc(C4(CN[C@H]5CC5c5ccccc5)CC4)no3)(CC1)CC2 (stereo partly shown) [Example 177]
[1]
  Cmax: 3210 ng/mL
  clearance: 9.9 mL/min/kg
  half-life: 1.6 h
  Vd: 0.5 L/kg
  bioavailability: 51.5%
  AUC(0-t): 3.86 µM·h
H1417 cells
  IC50: 500 to 1000 nM
  Emax: 50 to 70%

## O=C(O)c1ccc(CN2CCC3(CC2)CC(c2nc(C4(CN[C@H]5CC5c5ccccc5)CC4)no2)C3)cc1 (stereo partly shown) [Example 206]
Human LSD1
  IC50: 100 to 500 nM
H1417 cells
  IC50: 500 to 1000 nM
  Emax: 50 to 70%

## c1ccc(C2C[C@@H]2NCC2(CN3CC4CNCC4C3)CC2)cc1 (stereo partly shown) [Example 207]
Human LSD1
  IC50: ≤ 50 nM
H1417 cells
  IC50: 500 to 1000 nM
  Emax: 50 to 70%

## O=C(C1CC1)N1CCC(c2nc(C3(CN[C@H]4CC4c4ccccc4)CC3)no2)CC1 (stereo partly shown) [Example 208]
Human LSD1
  IC50: ≤ 50 nM
H1417 cells
  IC50: 100 to 500 nM
  Emax: 70 to 90%

## O=C(O)[C@@H]1CCCN1CC1(CN[C@H]2CC2c2ccccc2)CC1 (stereo partly shown) [Example 210]
[1]
  Cmax: 815 ng/mL
  clearance: 37.7 mL/min/kg
  half-life: 2.7 h
  Vd: 2.6 L/kg
  bioavailability: 40.5%
  AUC(0-t): 1.13 µM·h
Human LSD1
  IC50: ≤ 50 nM
H1417 cells
  IC50: 500 to 1000 nM
  Emax: 50 to 70%

## C[C@@H]1CCCN1CC1(CN[C@H]2CC2c2ccccc2)CC1 (stereo partly shown) [Example 213]
Human LSD1
  IC50: ≤ 50 nM
H1417 cells
  IC50: 100 to 500 nM
  Emax: 50 to 70%

## N[C@@H]1CCC[C@@H](c2nc(C3(CN[C@@H]4C[C@H]4c4ccccc4)CC3)no2)C1 [Example 214]
Human LSD1
  IC50: 50 to 100 nM
H1417 cells
  IC50: 100 to 500 nM
  Emax: 70 to 90%

## C[C@@H]1CN(CC2(CN[C@H]3CC3c3ccccc3)CC2)C[C@H](C)N1 (stereo partly shown) [Example 216]
Human LSD1
  IC50: 100 to 500 nM
H1417 cells
  IC50: ≤ 100 nM
  Emax: 90 to 100%

## C[C@@H]1CN(CC2(CN[C@H]3CC3c3ccccc3)CC2)C[C@H](C)O1 (stereo partly shown) [Example 217]
Human LSD1
  IC50: 100 to 500 nM
H1417 cells
  IC50: 500 to 1000 nM
  Emax: 50 to 70%

## c1ccc(C2C[C@@H]2NCC2(c3noc(C4CC5(CCNCC5)C4)n3)CC2)cc1 (stereo partly shown) [Example 219]
Human LSD1
  IC50: ≤ 50 nM
H1417 cells
  IC50: 500 to 1000 nM
  Emax: 90 to 100%

## N[C@@H]1CCC[C@H](c2nc(C3(CN[C@@H]4C[C@H]4c4ccccc4)CC3)no2)C1 [Example 220]
Human LSD1
  IC50: 50 to 100 nM
H1417 cells
  IC50: 100 to 500 nM
  Emax: 70 to 90%

## CC1(c2nc(C3(CN[C@@H]4C[C@H]4c4ccccc4)CC3)no2)CCC(N)CC1 (stereo partly shown) [Example 224]
[1]
  Cmax: 58.5 ng/mL
  clearance: 112 mL/min/kg
  half-life: 2.97 h
  Vd: 21.7 L/kg
  bioavailability: 35.1%
  AUC(0-t): 0.273 µM·h

## N[C@H]1CC[C@H](Cc2nc(C3(CN[C@H]4CC4c4ccccc4)CC3)no2)CC1 (stereo partly shown) [Example 225]
Human LSD1
  IC50: ≤ 50 nM
H1417 cells
  IC50: 100 to 500 nM
  Emax: 90 to 100%

## O=C(N1CCC(c2nc(C3(CN[C@H]4CC4c4ccccc4)CC3)no2)CC1)C(F)(F)F (stereo partly shown) [Example 226]
Human LSD1
  IC50: ≤ 50 nM
H1417 cells
  IC50: ≤ 100 nM
  Emax: 90 to 100%

## O=C(O)[C@H](Cc1c[nH]c2ccccc12)NCC1(CN[C@@H]2C[C@H]2c2ccccc2)CC1 [Example 227]
Human LSD1
  IC50: 100 to 500 nM
H1417 cells
  IC50: ≤ 100 nM
  Emax: 50 to 70%

## c1ccc([C@@H]2C[C@H]2NCC2(CN3CCCNCC3)CC2)cc1 [Example 230]
Human LSD1
  IC50: 100 to 500 nM
H1417 cells
  IC50: 100 to 500 nM
  Emax: 50 to 70%

## N[C@H]1CC[C@H](c2nc(C3(CN[C@@H]4C[C@H]4c4ccccc4)CCC3)no2)CC1 [Example 233]
Human LSD1
  IC50: 100 to 500 nM
H1417 cells
  IC50: 100 to 500 nM
  Emax: 70 to 90%

## O=C(O)C1(CN2CCC(c3nc(C4(CN[C@@H]5C[C@H]5c5ccccc5)CC4)no3)CC2)CCC1 [Example 235]
[1]
  Cmax: 497 ng/mL
  clearance: 62.4 mL/min/kg
  half-life: 0.34 h
  Vd: 0.99 L/kg
  bioavailability: 28%
  AUC(0-t): 0.37 µM·h
Human LSD1
  IC50: 100 to 500 nM
H1417 cells
  IC50: ≤ 100 nM
  Emax: 70 to 90%

## NC1CCC(c2nc(C3(CN[C@@H]4C[C@H]4c4ccccc4)CC3)no2)CC1(F)F (stereo partly shown) [Example 244]
Human LSD1
  IC50: ≤ 50 nM
H1417 cells
  IC50: ≤ 100 nM
  Emax: 70 to 90%

## c1ccc([C@@H]2C[C@H]2NCC2(c3noc(N4CCNCC4)n3)CC2)cc1 [Example 246]
Human LSD1
  IC50: ≤ 50 nM
H1417 cells
  IC50: 500 to 1000 nM
  Emax: 90 to 100%

## CN1CCN(c2nc(C3(CN[C@@H]4C[C@H]4c4ccccc4)CC3)no2)CC1 [Example 247]
Human LSD1
  IC50: ≤ 50 nM
H1417 cells
  IC50: 500 to 1000 nM
  Emax: 90 to 100%
